# Patent publication US8110605B2, “Compound for inactivating viruses and bacteria and method of making same” (priority 2009, dated 2012)
# Where “and” joins values, the source holds several entries; their conditions need not be identical. Identical values can stand only once. Like-named read-outs stand apart in the source and are kept apart here.
# Tests used:
# [1] = system: Tamiflu™-resistant strain H1N1 influenza virus (A/TW/066/09); format: cell-based
# [2] = system: Tamiflu™-resistant H1N1 subtype influenza virus (A/TW/066/09) virions
smiles,measurement,setting,value
O=C(O)C(CCCCCCCCCCS)C(=O)O [2-(10-mercaptodecyl)-propanedioic acid],concentration protecting cells against infection by Tamiflu-resistant H1N1 influenza virus (as low as),[1],30 ppm
same,"CPE, Tamiflu-resistant H1N1 influenza virus treated with compound",[1]; 3 ppm,+
same,"CPE, Tamiflu-resistant H1N1 influenza virus treated with compound",[1]; 30 ppm,−
same,"CPE, Tamiflu-resistant H1N1 influenza virus treated with compound",[1]; 100 ppm,−
same,"CPE, Tamiflu-resistant H1N1 influenza virus treated with compound",[1]; 300 ppm,−
same,"CPE, Tamiflu-resistant H1N1 influenza virus treated with compound","[1]; 1,000 ppm",CTX
same,"CPE, Tamiflu-resistant H1N1 influenza virus treated with compound","[1]; 3,000 ppm",CTX
same,maximum height of particles (AFM cursor profile),[2],~6.95 nm and ~5.28 nm
same,viral morphology by AFM,[2],disrupted and somewhat flattened
same,calculated RMS height of treated particles,[2]; 30 ppm,7.09±0.42 nm
same,calculated RMS height of treated particles,[2]; 300 ppm,5.39±0.23 nm
